Values quoted from earlier work in PMC8670146 (Journal of Pharmaceutical and Biomedical Analysis, 2021).

Molecular target: SARS-CoV-2 3CLpro (Severe acute respiratory syndrome coronavirus 2, UniProt P0DTD1)
Conditions: previous study

Row | Structure (SMILES) | in vitro 3CLpro inhibition activity
1 | O=C(O)[C@H]1O[C@@H](Oc2cc3oc(-c4ccccc4)cc(=O)c3c(O)c2O)[C@H](O)[C@@H](O)[C@@H]1O [compound 1, Baicalin] | showed in vitro 3CLpro inhibition activity
2 | O=c1cc(-c2ccccc2)oc2cc(O)c(O)c(O)c12 [compound 2, Baicalein] | showed in vitro 3CLpro inhibition activity
